Results on four compounds are retold here after US20200171159A1, “SELECTIVE DESTRUCTION OF CELLS” (priority 2017, published 2020).

In series [1] the target is IN-Rev interaction (Human immunodeficiency virus type 1 group M subtype B, UniProt P04618). The settings on record: cited from earlier work.
The conditions of series [2]: cited from earlier work.
Series [3] deals with HIV-1. The conditions noted are these: cited from earlier work.
The target in series [4] is T1, HIV-1 integrase (Human immunodeficiency virus type 1 group M subtype B, UniProt P12497).
T1 construct: purchased
Kind of series: Integrase activity in test tubes (HIV-1 integrase assay kit). It is filed as biochemical. On the procedure:
The ability of INS to increase the activity of HIV-1 integrase was tested using the HIV-1 integrase assay kit.

The test system of series [5] is MCF7, Human breast adenocarcinoma. Kind of series: Cell death of lentivirus-infected cells, fluorescent microscopy and MTT assay, Example 4. It is filed as cell-based. The conditions noted are these: MCF7 infected with CD24-targeted lentivirus; compared to the control peptide. On the procedure: (§1) Integrase derived peptides (designated as INS) were synthesized as well as control peptide. Humanized Anti-CD24 antibody fragment (scFv) was engineered and fused to the lentivirus envelope. Cell death was measured qualitatively by using fluorescent microscopy and was quantified by the enzymatic MTT assay. Human colorectal cells (DLD1, colorectal adenocarcinoma, FIG. 4A) and breast cancer cells (MCF7, Human breast adenocarcinoma, FIG. 4B) were used for testing the potency of the lentiviral-based system.
Background: Tetrazolium dyes change colour on reduction, which living cells bring about.

Series [6] concerns the target viral Integrase enzyme (Human immunodeficiency virus type 1 group M subtype B, UniProt P12497). Kind of series: Integrase stimulation in viral infected cells, Example 4. The series is classed as cell-based. On the procedure: as §1
In series [7] the target is T2, IN (Human immunodeficiency virus type 1 group M subtype B, UniProt P12497).
T2 construct: Stimulation of the HIV-1 Integrase Enzymatic Activity and cDNA Integration by a Peptide Derived from the Integrase Protein
The conditions noted are these: listed as INS; cited from earlier work.

The subject of series [8] is DLD1, colorectal adenocarcinoma. Kind of series: Cell death of lentivirus-infected cells, fluorescent microscopy and MTT assay, Example 4. It is filed as cell-based, human. The conditions noted are these: DLD1 infected with CD24-targeted lentivirus; compared to the control peptide. On the procedure:
as §1

In series [9] the test system is BT549 breast cancer cells. Kind of series: Cell survival, enzymatic MTT assay, Example 5. The series is classed as cell-based, human.
Series [10] deals with H1975 cells. Kind of series: Cell survival with LV-scFvCD24 and INr2 peptide, Example 3. It is filed as cell-based, human. The settings on record: with peptide and LV-scFvCD24 particles. On the procedure:
The expression of CD24 in H1975 cells was evaluated by Flow cytometry. Briefly, approximately 1×10^6 cells were used in each experiment. Fluorescein isothiocyanate (FITC)—labeled humanized anti-human CD24 antibodies were used. Detection of bound antibodies was performed on a Cube6 and results were analyzed with the FCS express program. The lentivirus used was anti-CD24 scFv in an MOI of 30. The LentiBoost™ concentration used was 1:100 buffer A+1:100 buffer B (+spinoculation). The INr2 peptide was used in a concentration of 30 μM. FIG. 3A depicts the fluorescence (count) of the tested cells (Left—negative control, only secondary antibody; Right—duplicates of cells expressing CD24 after first and second-FITC antibodies). […] FIG. 3C is a schematic illustration of the of the experiment timeline. […] Particles were added on days 1, 4 and 7 as well.

Series [11] relates to H1975 cells. Kind of series: Cell survival, enzymatic MTT assay, Example 2. The conditions noted are these: with INS peptide and LV-scFvCD24 particles.
Protocol: Cell line “H1975” cells were seeded in 96-well plates (2000 cells/well). […] Particles were added on day 2.
The test system of series [12] is 1975 lung cancer cells. Kind of series: Cell survival, enzymatic MTT assay, Example 5. It is filed as cell-based, human. The settings on record: 1975 cells.

“Also recorded” adds a separate entry of the source.

IN-Rev interaction, sequence (P04618 whole entry, looked up): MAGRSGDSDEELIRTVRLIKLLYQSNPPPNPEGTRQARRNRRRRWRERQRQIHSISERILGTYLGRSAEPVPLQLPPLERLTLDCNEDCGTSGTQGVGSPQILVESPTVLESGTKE

As to WTHLEGKIILVAVHVA [INr1], the IN-Rev interaction result in [1] is reported as “abrogated”. Further, the cell permeability entry in series [2] is “cell-permeable”. Also, the virus infectivity result in [3] is “stimulated virus infectivity”.

WTAVQMAVFIHNFKRK [INS peptide]: the “stimulation of the viral Integrase enzyme” value in series [4] and in [6] was “able to stimulate” in each case. Moreover, the cell death entry in series [5] and in series [8] was “Massive cell death” each time. Also, in series [1], the IN-Rev interaction result is reported as “abrogated”. Also, the cell permeability result in [2] is on record as “cell-permeable”. For the same compound, the virus infectivity entry in series [3] is “stimulated virus infectivity”. Moreover, the “direct effect on IN activity” value in series [7] is on record as “directly activates the free IN; also recorded: direct stimulatory effect”.

WGSNFTSTTVKA [INr2]: in [1], the IN-Rev interaction result is on record as “abrogated”. Also, the cell permeability entry in [2] was “cell-permeable”. In addition, in series [3], the virus infectivity entry is reported as “stimulated virus infectivity”.

On to `Cc1nnc(C(=O)NC(C)(C)c2nc(C(=O)NCc3ccc(F)cc3)c(O)c(=O)n2C)o1` [Raltegravir], for which the “effect of Raltegravir on the decrease in survival” value in series [9], in [10], in series [11] and in series [12] was “ameliorated” each time.
